Among the test systems are KM12; SF-268; SR; ACHN; K562; UO-31; A549; SK-MEL-2; UACC-257; SK-MEL-5; OVCAR-5; SN12C; UACC-62; M14; PC-3; IGROV-1; SNB-75; SK-OV-3; U-251; HCC 2998.
Common to all, as to assay: NCI tumour cell line growth inhibition, 48 h

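Cultured in 96-well plates, cells were exposed to test compound for 48 hours across five concentrations. GI50 = concentration required for 50% inhibition of growth.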 Active and inactive are the calls of the source. No stated cut-off is given here; in the data, active = GI50 up to about 1.1 µM and inactive = higher.

Consider `COC(CC1(CCNc2ccccc2)C(=O)N(COCC[Si](C)(C)C)c2ccccc21)OC` (stereo not given), for which the GI50 was 8.85 µM (inactive) with KM12; 11.6 µM (inactive) in the test on SF-268; > 32.8 µM (inactive) in the test with SR; 17.9 µM (inactive) in the test with ACHN; 8.41 µM (inactive) in the test on K562; 13.9 µM (inactive) with UO-31. Moreover, the GI50 in the test with A549 is 15.5 µM (inactive); in the test on SK-MEL-2 it was 15.3 µM (inactive); with UACC-257 it was 11.7 µM (inactive); with SK-MEL-5, 4.97 µM (inactive); in the test with OVCAR-5, 16.6 µM (inactive); in the test with SN12C, 23.2 µM (inactive). The GI50 is 14.5 µM (inactive) in the test with UACC-62; 2.51 µM (inactive) with M14; 11.8 µM (inactive) with PC-3; 9.66 µM (inactive) with IGROV-1; 4.46 µM (inactive) in the test with SNB-75; 15.2 µM (inactive) in the test on SK-OV-3. Besides, the GI50 was 18.2 µM (inactive) with U-251 and 2.11 µM (inactive) with HCC 2998.

With `CC(N)/C(N)=N/O` (stereo not given), the GI50 with KM12, in the test on SF-268, in the test with SR, in the test with ACHN, in the test with K562 and with UO-31 was > 100 µM (inactive) each time. In addition, the GI50 in the test with A549, in the test on SK-MEL-2, in the test on UACC-257, with SK-MEL-5, with OVCAR-5 and with SN12C was > 100 µM (inactive) in each case. In addition, the GI50 with UACC-62, in the test on M14, in the test on PC-3, in the test on IGROV-1, with SNB-75 and in the test on SK-OV-3 was > 100 µM (inactive) throughout. The GI50 in the test on U-251 and in the test on HCC 2998 was > 100 µM (inactive) throughout.

Turning to `C=CCN1C[C@H](C)N([C@@H](c2ccc(C(=O)N3CCCCC3)cc2)c2cccc(OC)c2)C[C@H]1C`, the GI50 in the test on KM12 is 36.9 µM (inactive); with SF-268, 52.7 µM (inactive); in the test on SR it was 16.1 µM (inactive); with ACHN, 32.3 µM (inactive); in the test on K562, 20.6 µM (inactive); in the test with UO-31, 24.4 µM (inactive). The GI50 in the test on A549 was 30.5 µM (inactive); with SK-MEL-2, 22.2 µM (inactive); in the test with UACC-257, 21.2 µM (inactive); in the test on SK-MEL-5, 19.1 µM (inactive); in the test on OVCAR-5 it was 58.1 µM (inactive); in the test on SN12C, 43 µM (inactive). Moreover, the GI50 in the test with UACC-62 was 21.5 µM (inactive); with M14, 17.4 µM (inactive); with PC-3 it was 21.9 µM (inactive); in the test with IGROV-1, 63.2 µM (inactive); in the test with SNB-75, 40 µM (inactive); with SK-OV-3, 89.5 µM (inactive). Also, the GI50 is 32.1 µM (inactive) with U-251 and 31.6 µM (inactive) with HCC 2998.

As for `C=CN1CCN(c2ccccc2)P1(=O)Oc1ccccc1` (stereo not given), the GI50 is > 100 µM (inactive) in the test on KM12; > 100 µM (inactive) with SF-268; > 100 µM (inactive) in the test on SR; 48.8 µM (inactive) in the test on ACHN; > 100 µM (inactive) in the test on K562; 20 µM (inactive) in the test with UO-31. The GI50 in the test with A549 is > 100 µM (inactive); with SK-MEL-2, 54.6 µM (inactive); in the test with UACC-257, > 100 µM (inactive); in the test on SK-MEL-5 it was 87.7 µM (inactive); in the test with OVCAR-5 it was > 100 µM (inactive); with SN12C, > 100 µM (inactive). For the same molecule, the GI50 is 53.1 µM (inactive) in the test on UACC-62; 40.2 µM (inactive) in the test with M14; 31.3 µM (inactive) in the test on PC-3; 53.7 µM (inactive) in the test on IGROV-1; 16.4 µM (inactive) in the test on SNB-75; > 100 µM (inactive) with SK-OV-3. Also, the GI50 in the test on U-251 and with HCC 2998 was > 100 µM (inactive) throughout.

As to `O=C(/C=C/c1cccc(Br)c1)N1CCN(CCOC(c2ccccc2)c2ccccc2)CC1`, the GI50 with KM12 is 32 µM (inactive); in the test on SF-268 it was > 100 µM (inactive); in the test with SR, 16.1 µM (inactive); with ACHN it was 57.3 µM (inactive); with K562, 13 µM (inactive); in the test with UO-31, 25.4 µM (inactive). Further, the GI50 in the test on A549 was 43.2 µM (inactive); with SK-MEL-2 it was 43.6 µM (inactive); in the test on UACC-257, 63.5 µM (inactive); in the test with SK-MEL-5, 16 µM (inactive); with OVCAR-5, > 100 µM (inactive); with SN12C it was 31.7 µM (inactive). Moreover, the GI50 with UACC-62 is 25.9 µM (inactive); with M14, 62.2 µM (inactive); with PC-3 it was 44.1 µM (inactive); in the test with IGROV-1 it was 81.7 µM (inactive); in the test with SNB-75, 26.2 µM (inactive); with SK-OV-3, > 100 µM (inactive). In addition, the values for the GI50 in the test on U-251 and with HCC 2998 were 35.3 µM (inactive) and 46.6 µM (inactive), respectively.

Consider `COc1ccc2c(C)cc(N/N=C/c3ccc(C)s3)nc2c1`, for which the GI50 with KM12 was 5.18 µM (inactive); in the test on SF-268, 25.8 µM (inactive); in the test on SR, 5.18 µM (inactive); with ACHN, 18 µM (inactive); with K562, 3.61 µM (inactive); in the test on UO-31 it was 13.6 µM (inactive). Moreover, the GI50 in the test on A549 was 7.91 µM (inactive); with SK-MEL-2 it was 19.1 µM (inactive); in the test on UACC-257, 11 µM (inactive); with SK-MEL-5, 3.43 µM (inactive); in the test on OVCAR-5, 12.6 µM (inactive); in the test with SN12C, 11.9 µM (inactive). Also, the GI50 in the test with UACC-62 is 20.1 µM (inactive); in the test with M14, 6.55 µM (inactive); in the test on PC-3, 14.1 µM (inactive); in the test on IGROV-1, 7.82 µM (inactive); in the test with SNB-75, 20.9 µM (inactive); in the test with SK-OV-3 it was 17 µM (inactive). Moreover, the GI50 with U-251 was 13.7 µM (inactive); in the test with HCC 2998, 6.11 µM (inactive).

Regarding `CC(CC=O)Nc1nn2c(=O)c3ccccc3nc2s1` (stereo not given), the GI50 in the test on KM12 is > 100 µM (inactive); with SF-268 it was > 100 µM (inactive); in the test on SR, > 100 µM (inactive); in the test on ACHN it was > 100 µM (inactive); in the test on K562 it was > 100 µM (inactive); with UO-31, 18.2 µM (inactive). Moreover, the GI50 in the test with A549, in the test with SK-MEL-2, in the test on UACC-257, in the test on SK-MEL-5, in the test with OVCAR-5 and in the test on SN12C was > 100 µM (inactive) in each case. The GI50 with UACC-62 is 43.1 µM (inactive); in the test with M14 it was > 100 µM (inactive); in the test on PC-3, > 100 µM (inactive); in the test with IGROV-1 it was > 100 µM (inactive); in the test with SNB-75, > 100 µM (inactive); in the test with SK-OV-3 it was > 100 µM (inactive). Further, the GI50 in the test on U-251 and in the test with HCC 2998 was > 100 µM (inactive) throughout.

Turning to `C[C@H]1O[C@@H](C(C)(C)C)OC(=O)[C@@H]1C(OC(=O)c1ccccc1)c1cccc2ccccc12` (stereo not given in full), the GI50 in the test on KM12 was > 100 µM (inactive); in the test on SF-268, > 100 µM (inactive); with SR it was 48.4 µM (inactive); in the test with ACHN it was > 100 µM (inactive); with K562 it was > 100 µM (inactive); with UO-31 it was > 100 µM (inactive). Moreover, the GI50 in the test with A549, in the test on SK-MEL-2, in the test with UACC-257, in the test with SK-MEL-5, in the test with OVCAR-5 and with SN12C was > 100 µM (inactive) throughout. The GI50 in the test with UACC-62, in the test on M14, with PC-3, in the test on IGROV-1, with SNB-75 and with SK-OV-3 was > 100 µM (inactive) each time. Further, the GI50 in the test on U-251 and in the test with HCC 2998 was > 100 µM (inactive) each time.

As to `COc1cc(/C=C/c2sc3ccccc3[n+]2C)ccc1N(C)C`, the GI50 was 3.62 µM (inactive) in the test with KM12; 13.8 µM (inactive) in the test on SF-268; 1.94 µM (inactive) with SR; 11.1 µM (inactive) in the test on ACHN; 2.1 µM (inactive) in the test on K562; < 0.01 µM (active) in the test on UO-31. Also, the GI50 is 5.98 µM (inactive) in the test on A549; 2.32 µM (inactive) in the test on SK-MEL-2; 2.96 µM (inactive) with UACC-257; 4.14 µM (inactive) in the test on SK-MEL-5; 20.3 µM (inactive) in the test with OVCAR-5; 12.9 µM (inactive) with SN12C. Besides, the GI50 with UACC-62 was 5.26 µM (inactive); with M14, 13.4 µM (inactive); with PC-3, 3.24 µM (inactive); in the test with IGROV-1 it was 7.41 µM (inactive); with SNB-75, > 10 µM (inactive); with SK-OV-3 it was 23.6 µM (inactive). For the same molecule, the GI50 in the test on U-251 was 6.9 µM (inactive); in the test with HCC 2998 it was 21.8 µM (inactive).

Regarding `O=[N+]([O-])c1cc2no[n+]([O-])c2cc1N1CCCCC1`, the GI50 with KM12 is 13.4 µM (inactive); in the test with SF-268, 8.18 µM (inactive); in the test with SR, 2.94 µM (inactive); in the test with ACHN, 2.58 µM (inactive); in the test on K562, 1.43 µM (inactive); with UO-31 it was 2.07 µM (inactive). The GI50 in the test on A549 is 11.3 µM (inactive); with SK-MEL-2, 7.05 µM (inactive); in the test on UACC-257, 8.24 µM (inactive); with SK-MEL-5, 15.3 µM (inactive); with OVCAR-5, 8.39 µM (inactive); with SN12C, 1.99 µM (inactive). The GI50 was 13.4 µM (inactive) in the test with UACC-62; 2.62 µM (inactive) with M14; 2.16 µM (inactive) in the test on PC-3; 3.21 µM (inactive) in the test on IGROV-1; 2.39 µM (inactive) in the test with SNB-75; 14 µM (inactive) with SK-OV-3. Besides, the results for the GI50 with U-251 and in the test with HCC 2998 were 3.93 µM (inactive) and 13.2 µM (inactive), respectively.
